How the values were obtained:
wheat [1] = assay: Test C preemergence; assay type: in vivo, Triticum aestivum
How it was run: (§1)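 Seeds in loam–sand blend received preemergence directed soil spray of test chemicals in non-phytotoxic solvent with surfactant; postemergence treatment was applied at one- to two-leaf stage (2–10 cm). After 10 days in greenhouse, injury rated visually versus untreated controls, 0 (no effect) to 100 (complete control).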

green foxtail [2] = assay: Test C postemergence; assay type: in vivo, Setaria viridis; details: 10 days, 0 to 100 scale (0 no effect, 100 complete control)
How it was run: as §1

wheat [3] = assay: Test C postemergence; assay type: in vivo, Triticum aestivum; details: 10 days, 0 to 100 scale (0 no effect, 100 complete control)
How it was run: as §1

oat, wild [4] = assay: Test C postemergence; assay type: in vivo, Avena fatua; details: 10 days, 0 to 100 scale (0 no effect, 100 complete control)
How it was run: as §1

corn [5] = assay: Test C preemergence; assay type: in vivo, Zea mays
How it was run: as §1

pigweed, palmer [6] = assay: Test C postemergence; assay type: in vivo, Amaranthus palmeri; details: 10 days, 0 to 100 scale (0 no effect, 100 complete control)
How it was run: as §1

ragweed [7] = assay: Test C preemergence; assay type: in vivo, Ambrosia artemisiifolia
How it was run: as §1

blackgrass [8] = assay: Test C postemergence; assay type: in vivo, Alopecurus myosuroides; details: Alopecurus myosuroides, post-emergence, 240 h, 10 days, 0 to 100 scale (0 no effect, 100 complete control), read-out: Plant response rating, Blackgrass
How it was run: as §1

horseweed = assay: Test C postemergence; assay type: in vivo, Erigeron canadensis; details: 10 days, 0 to 100 scale (0 no effect, 100 complete control)
How it was run: as §1

pigweed, palmer [9] = assay: Test C preemergence; assay type: in vivo, Amaranthus palmeri
How it was run: as §1

rice = assay: Test D flooded paddy test; assay type: in vivo, Oryza sativa; details: 250 g ai/ha, applied to paddy water, visual rating after 13 to 14 days, scale 0 to 100 (0 no effect, 100 complete control)
How it was run: (§2)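 Compounds go straight into paddy water over 2-leaf plants in pots flooded to 3 cm. Greenhouse holding lasts 13 to 14 days. Injury is scored by eye against controls from 0 (none) to 100 (complete control).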

soybean [10] = assay: Test C preemergence; assay type: in vivo, Glycine max
How it was run: as §1

corn [11] = assay: Test C postemergence; assay type: in vivo, Zea mays; details: Zea mays, post-emergence, 240 h, 10 days, 0 to 100 scale (0 no effect, 100 complete control)
How it was run: as §1

ryegrass, Italian [12] = assay: Test C postemergence; assay type: in vivo, Lolium multiflorum; details: 10 days, 0 to 100 scale (0 no effect, 100 complete control)
How it was run: as §1

sedge, umbrella = assay: Test D flooded paddy test; assay type: in vivo, Cyperus difformis; details: 250 g ai/ha, applied to paddy water, visual rating after 13 to 14 days, scale 0 to 100 (0 no effect, 100 complete control)
How it was run: as §2

barnyardgrass [13] = assay: Test C postemergence; assay type: in vivo, Echinochloa crusgalli; details: 10 days, 0 to 100 scale (0 no effect, 100 complete control)
How it was run: as §1

ducksalad = assay: Test D flooded paddy test; assay type: in vivo, Heteranthera limosa; details: 250 g ai/ha, applied to paddy water, visual rating after 13 to 14 days, scale 0 to 100 (0 no effect, 100 complete control)
How it was run: as §2

kochia [14] = assay: Test C preemergence; assay type: in vivo, Bassia scoparia
How it was run: as §1

barnyardgrass [15] = assay: Test C preemergence; assay type: in vivo, Echinochloa crusgalli
How it was run: as §1

green foxtail [16] = assay: Test C preemergence; assay type: in vivo, Setaria viridis
How it was run: as §1

kochia [17] = assay: Test C postemergence; assay type: in vivo, Bassia scoparia; details: 10 days, 0 to 100 scale (0 no effect, 100 complete control)
How it was run: as §1

galium = assay: Test C postemergence; assay type: in vivo, Galium aparine; details: 10 days, 0 to 100 scale (0 no effect, 100 complete control)
How it was run: as §1

ragweed [18] = assay: Test C postemergence; assay type: in vivo, Ambrosia artemisiifolia; details: 10 days, 0 to 100 scale (0 no effect, 100 complete control)
How it was run: as §1

soybean [19] = assay: Test C postemergence; assay type: in vivo, Glycine max; details: 10 days, 0 to 100 scale (0 no effect, 100 complete control)
How it was run: as §1

barnyardgrass [20] = assay: Test D flooded paddy test; assay type: in vivo, Echinochloa crus-galli; details: 250 g ai/ha, applied to paddy water, visual rating after 13 to 14 days, scale 0 to 100 (0 no effect, 100 complete control)
How it was run: as §2

oat, wild [21] = assay: Test C preemergence; assay type: in vivo, Avena fatua
How it was run: as §1

ryegrass, Italian [22] = assay: Test C preemergence; assay type: in vivo, Lolium multiflorum
How it was run: as §1

blackgrass [23] = assay: Test C preemergence; assay type: in vivo, Alopecurus myosuroides
How it was run: as §1

[24] = 500 g ai/ha, preemergence, 0 to 100 scale (0 no effect, 100 complete control)
[25] = Preemergence, 125 g ai/ha, 0 to 100 scale, 0 no effect, 100 complete control

CCOC[C@H]1CN(C(=O)c2cc(-n3cnc(C(C)C)n3)ccc2C)c2cccc(Cl)c2O1 [Compound 340, [(2R)-8-chloro-2-(ethoxymethyl)-2,3-dihydro-1,4-benzoxazin-4-yl]-[5-(3-isopropyl-1,2,4-triazol-1-yl)-2-methyl-phenyl]methanone]
Wheat plant response rating (wheat [1]; [24]): 80 | Plant response rating, Wheat (wheat [1]; [25]): 50 | Plant response rating, Foxtail, Green (green foxtail [2]; 500 g ai/ha, postemergence): 70 | Plant response rating, Foxtail, Green (green foxtail [2]; Postemergence, 125 g ai/ha): 30 | Plant response rating, Wheat (wheat [3]; 500 g ai/ha, postemergence): 30 | Plant response rating, Wheat (wheat [3]; Postemergence, 125 g ai/ha): 10 | Plant response rating, Oat, Wild (oat, wild [4]; 500 g ai/ha, postemergence): 20 | Plant response rating, Oat, Wild (oat, wild [4]; Postemergence, 125 g ai/ha): 10 | Corn plant response rating (corn [5]; [24]): 40 | Plant response rating, Corn (corn [5]; [25]): 20 | Plant response rating, Pigweed, Palmer (pigweed, palmer [6]; 500 g ai/ha, postemergence): 100 | Plant response rating, Pigweed, Palmer (pigweed, palmer [6]; Postemergence, 125 g ai/ha): 80 | Ragweed plant response rating (ragweed [7]; [24]): 100 | Plant response rating, Ragweed (ragweed [7]; [25]): 80 | pest or weed control at 500 g/ha (blackgrass [8]; 500 g ai/ha, postemergence): 60% | pest or weed control at 125 g/ha (blackgrass [8]; Postemergence, 125 g ai/ha): 20% | Plant response rating, Horseweed (horseweed; 500 g ai/ha, postemergence): 60 | Plant response rating, Horseweed (horseweed; Postemergence, 125 g ai/ha): 30 | Pigweed, Palmer plant response rating (pigweed, palmer [9]; [24]): 100 | Plant response rating, Pigweed, Palmer (pigweed, palmer [9]; [25]): 100 | Plant response rating, Rice (Flood) (rice): 0 | Soybean plant response rating (soybean [10]; [24]): 100 | Plant response rating, Soybean (soybean [10]; [25]): 30 | Corn plant response rating (crop injury, 0 = no effect, 100 = complete kill) at 500 g/ha (corn [11]; 500 g ai/ha, postemergence): 60% | Corn plant response rating (crop injury, 0 = no effect, 100 = complete kill) at 125 g/ha (corn [11]; Postemergence, 125 g ai/ha): 60% | Plant response rating, Ryegrass, Italian (ryegrass, Italian [12]; 500 g ai/ha, postemergence): 80 | Plant response rating, Ryegrass, Italian (ryegrass, Italian [12]; Postemergence, 125 g ai/ha): 60 | Plant response rating, Sedge, Umbrella (Flood) (sedge, umbrella): 60 | Plant response rating, Barnyardgrass (barnyardgrass [13]; 500 g ai/ha, postemergence): 60 | Plant response rating, Barnyardgrass (barnyardgrass [13]; Postemergence, 125 g ai/ha): 50 | Plant response rating, Ducksalad (Flood) (ducksalad): 75 | Kochia plant response rating (kochia [14]; [24]): 100 | Plant response rating, Kochia (kochia [14]; [25]): 90 | Barnyardgrass plant response rating (barnyardgrass [15]; [24]): 100 | Plant response rating, Barnyardgrass (barnyardgrass [15]; [25]): 90 | Foxtail, Green plant response rating (green foxtail [16]; [24]): 100 | Plant response rating, Foxtail, Green (green foxtail [16]; [25]): 100 | Plant response rating, Kochia (kochia [17]; 500 g ai/ha, postemergence): 90 | Plant response rating, Kochia (kochia [17]; Postemergence, 125 g ai/ha): 90 | Plant response rating, Galium (galium; 500 g ai/ha, postemergence): 100 | Plant response rating, Galium (galium; Postemergence, 125 g ai/ha): 90 | Plant response rating, Ragweed (ragweed [18]; 500 g ai/ha, postemergence): 80 | Plant response rating, Ragweed (ragweed [18]; Postemergence, 125 g ai/ha): 70 | Plant response rating, Soybean (soybean [19]; 500 g ai/ha, postemergence): 100 | Plant response rating, Soybean (soybean [19]; Postemergence, 125 g ai/ha): 100 | Plant response rating, Barnyardgrass (Flood) (barnyardgrass [20]): 0 | Oat, Wild plant response rating (oat, wild [21]; [24]): 80 | Plant response rating, Oat, Wild (oat, wild [21]; [25]): 70 | Ryegrass, Italian plant response rating (ryegrass, Italian [22]; [24]): 100 | Plant response rating, Ryegrass, Italian (ryegrass, Italian [22]; [25]): 90 | Blackgrass plant response rating (blackgrass [23]; [24]): 90 | Plant response rating, Blackgrass (blackgrass [23]; [25]): 50
